This note sets out measurements from US20220390435A1, “COMPOSITIONS FOR PATIENT SPECIFIC IMMUNOTHERAPY” (VITROSCAN B.V., priority 2019, published 2022).

What all share (format): cell-based, human
The subject of one assay is ovarian cancer tumoroids. Nature of the assay: ex vivo 3D patient-derived tumour culture with 3D imaging, ovarian cancer samples. The note with it: for area size of small objects (smaller than 160 μm^2, immune cells): same ovarian tumour sample as FIG. 4, FIG. 5.
The subject of assay [1] is patient derived tumour cell aggregates. Nature of the assay: Selection Factor (tumoroids' area decrease) across patient samples. The note with it: for immune reaction reducing the number of tumour cells (Selection Factor across samples): FIGS. 8 and 9, alone or in combination, immune system of a naïve patient sample only.
Assay [2] concerns Mesothelioma tumour sample. Description: ex vivo 3D patient-derived tumour culture with 3D imaging, mesothelioma sample. The note with it: FIG. 3.
In another assay the test system is lung tumour sample. Description: ex vivo 3D patient-derived tumour culture with 3D imaging, lung tumour sample. The note with it: FIG. 6.
For a further assay, the system named is IFN-γ. Nature of the assay: IFN-γ production in treated patient-derived cultures. The note with it: FIG. 7; IFN-γ is secreted by activated T-cells.

In the case of `Nc1ncnc2c1ncn2[C@@H]1O[C@@H]2COP(=O)([S-])O[C@@H]3[C@H](O)[C@@H](COP([O-])(=S)O[C@H]2[C@H]1O)O[C@H]3n1cnc2c(N)ncnc21.[Na+].[Na+]` (stereo partly shown) [ADU-S100], the “area size of small objects (smaller than 160 μm^2, immune cells)” value in the assay on ovarian cancer tumoroids is “area size increase of small objects”.

As to `O=C(c1cc(Cc2n[nH]c(=O)c3ccccc23)ccc1F)N1CCN(C(=O)C2CC2)CC1` [olaparib], the “immune reaction reducing the number of tumour cells (Selection Factor across samples)” value in assay [1] is listed as “able to start an immune reaction that effectively reduced the number of tumour cells”.

Take ipilimumab: the “immune-mediated tumoroid killing effect” value in assay [2] was “showing immune-mediated tumoroid killing effect”. Moreover, the “killing effect in a lung cancer tumour sample” value in the assay with lung tumour sample is on record as “killing effect in a lung cancer tumour sample”. Further, the “immune reaction reducing the number of tumour cells (Selection Factor across samples)” value in assay [1] is “able to start an immune reaction that effectively reduced the number of tumour cells”. Further, the “in-vitro Selection Factor” value in assay [1] (subset of patients that benefit from treatment) is “below −30%”. Also, the IFN-γ production entry in the assay on IFN-γ is reported as “increased”. For the same compound, the “activating native immune cells to kill ovarian cancer tumoroids (total area of objects larger than 422 μm^2 / smaller than 160 μm^2)” value in the assay with ovarian cancer tumoroids (ovarian cancer samples of FIG. 1) was “showed effectiveness in activating immune cells”. Also, the “activating native immune cells to kill tumoroids” value in the assay on ovarian cancer tumoroids (ovarian cancer samples of FIG. 2) is “does not show effectiveness”.

Turning to nivolumab, in the assay with lung tumour sample, the “killing effect in a lung cancer tumour sample” value was “killing effect in a lung cancer tumour sample”.

With pembrolizumab, the “killing effect in a lung cancer tumour sample” value with lung tumour sample is reported as “killing effect in a lung cancer tumour sample”. Besides, the “killing effect, i.e. area size reduction of tumoroid clusters” value in the assay with ovarian cancer tumoroids (ovarian tumour sample, FIG. 4) is reported as “killing effect, i.e. area size reduction of tumoroid clusters”. The “area size of small objects (smaller than 160 μm^2, immune cells)” value in the assay with ovarian cancer tumoroids is given as “area size increase of small objects”.
